In ChEMBL document CHEMBL1141735, “HIV-inhibitory and cytotoxic oligostilbenes from the leaves of Hopea malibato” (J Nat Prod, 1998) one finds IC50 and EC50 data, which are given here for four compounds.

For one assay, the system named is CEM-SS. As to the kind of experiment: Cytotoxicity against human CEM-SS cells. The class given is cell-based.
The subject of assay [1] is Human immunodeficiency virus. As to the kind of experiment: Antiviral activity against HIV infected in human CEM-SS cells. In kind it is functional, organism-based. The conditions noted are these: Human immunodeficiency virus 1, CEM-SS.

≈ marks a conversion by molar mass, not a printed value.

Broadly, the IC50 is the midpoint of a concentration-inhibition curve. A low value points to higher potency. Compound `Oc1ccc([C@H]2c3c(O)cc(O)c(O)c3-c3c(-c4ccc(O)c(O)c4)oc4cc(O)cc(c34)[C@@H]2O)cc1` [MALIBATOL B] came in with an IC50 in the assay with CEM-SS of 21 µg/mL (≈ 42 µM).
Consider `Oc1ccc(-c2oc3cc(O)cc4c3c2-c2cc(O)cc(O)c2[C@H](c2ccc(O)cc2)[C@H]4O)cc1` [MALIBATOL A], for which the IC50 with CEM-SS came out at 13 µg/mL (≈ 27.8 µM).
Broadly, the EC50 is the concentration giving half of the maximal effect. With `Oc1ccc([C@H]2c3c(O)cc(O)cc3[C@@H]3c4c(cc(O)cc4[C@]2(O)[C@@]2(O)c4cc(O)cc5c4[C@@H](c4cc(O)cc(O)c4[C@@H]2c2ccc(O)cc2)[C@H](c2ccc(O)cc2)O5)O[C@H]3c2ccc(O)cc2)cc1` [DIBALANOCARPOL], the response in assay [1] was half-maximal at 46 µg/mL (≈ 49 µM) (EC50).
`Oc1ccc([C@H]2c3c(O)cc(O)cc3[C@@H]3c4c(cc(O)cc4[C@H]2O)O[C@H]3c2ccc(O)cc2)cc1` [BALANOCARPOL]: the response in assay [1] was half-maximal at 20 µg/mL (≈ 42.5 µM) (EC50).
